Laboratory results reported in patent US20260070887A1 (Shenzhen Zhongge Biological Technology Co., Ltd., priority 2022, published 2026).
pIC50: −log10 of the molar value. Like-named read-outs stand apart in the source and are kept apart here.

Assays:
HT-29 cells = experiment: HT-29 cell proliferation (Cell Titer-Glo, 6 days); type: cell-based
Summary of the method: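 Cells seeded at 4,170 cells/mL in McCoy's 5a with 10% FBS, compound added from DMSO stock, grown 6 days at 37 °C, 5% CO2. Cell Titer-Glo luminescence; inhibition vs 0.3% DMSO control, IC50 by nonlinear regression.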

HCT116 cells = experiment: HCT116 cell anti-proliferation assay; type: cell-based; conditions: 6 days, Cell Titer-Glo
Description: HCT116 (ATCC, CCL-247) cells were cultured in McCoy's 5a complete medium (Gibco, 12330-031) containing 10% fetal bovine serum (Gibco, 10099-141C), 100 U penicillin and 100 μg/mL streptomycin (Gibco, 15140-122). The Promega kit Cell Titer-Glo (Promega: G7572) was used in this method for test.
HCT116 cells were cultured in T75 cell flasks (Corning, 430641) and the cells were placed in a 37° C., 5% CO2 incubator. Cells were passaged when reaching a cell density of 70%-80%, approximately twice per week. To perform the experiment, the test compounds were dissolved in DMSO to prepare a 10 mM stock solution, and the test compounds were added to the 384-well cell test plate (Corning, 3765) at the predetermined concentration (19.5 nM-[…]) using ECHO. […] cells were digested and 150 cells (60 μL medium) were seeded per well in the test plate. The 384-well plate was then centrifuged at 500 rpm for 1 minute, and then placed in a 37° C., 5% CO2 incubator for 6 days of cultivation. Six days later, the cell culture plate was equilibrated for 10 minutes at room temperature, 25 μL of Cell Titer-Glo was added to each well, and the mixture was shaken and mixed well and let stand for 5 minutes. The luminescence values for samples in various wells were read using a microplate reader in Luminescence mode.
The percentage of inhibition of cell proliferation by the test compound at each concentration was calculated by comparing with the values of the control group (0.2% DMSO). The IC50 values of the compounds were obtained by concentration-inhibition rate nonlinear regression analysis of the test compounds using GraphPad Prism 9.

PK study in ICR mice = type: in vivo, mouse; conditions: plasma, route and dose not given
Summary of the method: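 Fasted ICR mice (3/group) dosed intravenously or by oral gavage; plasma sampled up to 24 h. Plasma levels measured by LC-MS/MS after protein precipitation. T½, AUC0-t, CL, Vss and F derived by noncompartmental analysis.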

[1] = both sexes, mouse, read-out: AUC
[2] = both sexes, mouse, read-out: Cmax

## CC1Cn2c(cc3c(NC(=O)c4ccc(NS(=O)(=O)CCO)cc4N4CCC5(CC4)CC5)cccc32)C(C)O1 (single isomer, unassigned) [Compound 312-P2A, N-(1,3-dimethyl-3,4-dihydro-1H-[1,4]oxazino[4,3-a]indol-9-yl)-4-((2-hydroxyethyl)sulfonamido)-2-(6-azaspiro[2.5]oct-6-yl)benzamide]
HT-29 cells; Homo sapiens, HT-29, 144 h
  pIC50: ≥ 6.70
HCT116 cells
  pIC50: 5.17

## CC1Cn2c(cc3c(NC(=O)c4ccc(NS(=O)(=O)CCO)cc4N4CCC5(CC4)CC5)cccc32)C(C)O1 (single isomer, unassigned) [Compound 312-P3, N-(1,3-dimethyl-3,4-dihydro-1H-[1,4]oxazino[4,3-a]indol-9-yl)-4-((2-hydroxyethyl)sulfonamido)-2-(6-azaspiro[2.5]oct-6-yl)benzamide]
PK study in ICR mice; [1]
  AUC: 32400 ng·h/mL
PK study in ICR mice; [2]
  Cmax: 2980 ng/mL
HT-29 cells
  pIC50: ≥ 6.70
HCT116 cells; Homo sapiens, HCT-116, 144 h
  pIC50: < 5.00

## COC1c2cc3c(NC(=O)c4ccc(NS(=O)(=O)CCO)cc4N4CCC5(CC4)CC5)cccc3n2CCC1(F)F (single isomer, unassigned) [Example 340-P2]
HT-29 cells
  pIC50: ≥ 6.70
HCT116 cells
  pIC50: 5.07

## CC1(C)Cn2c(nc3c(NC(=O)c4ccc(NS(=O)(=O)CCO)cc4N4CCC5(CC4)CC5)cccc32)CO1 [Compound 391, N-(3,3-dimethyl-3,4-dihydro-1H-benzo[4,5]imidazo[2,1-c][1,4]oxazin-9-yl)-4-((2-hydroxyethyl)sulfonamido)-2-(6-azaspiro[2.5]octan-6-yl)benzamide]
PK study in ICR mice; [1]
  AUC: 38000 ng·h/mL
PK study in ICR mice; [2]
  Cmax: 4370 ng/mL
HT-29 cells; Homo sapiens, HT-29, 144 h
  pIC50: ≥ 6.70
HCT116 cells; Homo sapiens, HCT-116, 144 h
  pIC50: < 5.00

## CC1(C)Cn2c(cc3c(NC(=O)c4ccc(NS(=O)(=O)CCO)cc4N4CCC5(CC4)CC5)ccc(C#N)c32)CO1 [Compound 392, N-(6-cyano-3,3-dimethyl-3,4-dihydro-1H-[1,4]oxazino[4,3-a]indol-9-yl)-4-((2-hydroxyethyl)sulfonamido)-2-(6-azaspiro[2.5]oct-6-yl)benzamide]
PK study in ICR mice; [1]
  AUC: 50800 ng·h/mL
PK study in ICR mice; [2]
  Cmax: 5080 ng/mL
HT-29 cells; Homo sapiens, HT-29, 144 h
  pIC50: ≥ 6.70
HCT116 cells; Homo sapiens, HCT-116, 144 h
  pIC50: < 5.00

## CC1(C)Cn2c(cc3c(NC(=O)c4ccc(NS(=O)(=O)CCO)cc4N4CCC(=C(F)F)CC4)ccc(C#N)c32)CO1 [Compound 393, N-(6-cyano-3,3-dimethyl-3,4-dihydro-1H-[1,4]oxazino[4,3-a]indol-9-yl)-2-(4-(difluoromethylene)piperidin-1-yl)-4-((2-hydroxyethyl)sulfonamido)benzamide]
PK study in ICR mice; [1]
  AUC: 22300 ng·h/mL
PK study in ICR mice; [2]
  Cmax: 3840 ng/mL
HT-29 cells; Homo sapiens, HT-29, 144 h
  pIC50: ≥ 6.70
HCT116 cells; Homo sapiens, HCT-116, 144 h
  pIC50: < 5.00

## CC1(C)Cn2c(nc3c(NC(=O)c4ccc(NS(=O)(=O)CCO)cc4N4CCC(=C(F)F)CC4)cccc32)CO1 [Compound 394, 2-(4-(difluoromethylene)piperidin-1-yl)-N-(3,3-dimethyl-3,4-dihydro-1H-benzo[4,5]imidazo[2,1-c][1,4]oxazin-9-yl)-4-((2-hydroxyethyl)sulfonamido)benzamide]
PK study in ICR mice; [1]
  AUC: 47800 ng·h/mL
PK study in ICR mice; [2]
  Cmax: 4220 ng/mL
HT-29 cells; Homo sapiens, HT-29, 144 h
  pIC50: ≥ 6.70
HCT116 cells; Homo sapiens, HCT-116, 144 h
  pIC50: < 5.00

## CC1(C)OCCn2c1cc1c(NC(=O)c3ccc(NS(=O)(=O)CCO)cc3N3CCC(=C(F)F)CC3)cccc12 [Compound 395, 2-(4-(difluoromethylene)piperidin-1-yl)-N-(1,1-dimethyl-3,4-dihydro-1H-[1,4]oxazino[4,3-a]indol-9-yl)-4-((2-hydroxyethyl)sulfonamido)benzamide]
HT-29 cells; Homo sapiens, HT-29, 144 h
  pIC50: 6.00 to 6.70
HCT116 cells; Homo sapiens, HCT-116, 144 h
  pIC50: < 5.00

## O=C(Nc1cccc2c1cc1n2CC2CCC1O2)c1ccc(NS(=O)(=O)CCO)cc1N1CCC(=C(F)F)CC1 (stereo not drawn) [Compound 398, 2-(4-(difluoromethylene)piperidin-1-yl)-4-((2-hydroxyethyl)sulfonamido)-N-(7,8,9,10-tetrahydro-6H-7,10-epoxyazeto[1,2-a]indol-1-yl)benzamide]
PK study in ICR mice
  AUC: 6992 ng·h/mL
  Cmax: 1410 ng/mL
HCT116 cells
  pIC50: < 5.00

## COc1ccc(NC(=O)c2ccc(NS(=O)(=O)CCO)cc2N2CCC(=C(F)F)CC2)c2cc3n(c12)CCOC3 [Compound 405, 2-(4-(difluoromethylene)piperidin-1-yl)-4-((2-hydroxyethyl)sulfonamido)-N-(6-methoxy-3,4-dihydro-1H-[1,4]oxazinyl[4,3-a]indol-9-yl)benzamide]
PK study in ICR mice
  AUC: 27572 ng·h/mL
  Cmax: 4205 ng/mL
HT-29 cells
  pIC50: ≥ 6.70
HCT116 cells
  pIC50: < 5.00

## Nc1cc(NS(=O)(=O)CCO)cc(N2CCC3(CC2)CC3)c1C(=O)Nc1cccc(N2CCC(F)(F)CC2)c1 [Example 1, 2-amino-N-(3-(4,4-difluoropiperidin-1-yl)phenyl)-4-((2-hydroxyethyl)sulfonamide)-6-(6-azaspiro[2.5]octan-6-yl)benzamide]
HT-29 cells
  pIC50: ≥ 6.70

## CNc1cc(NS(=O)(=O)CCO)cc(N2CCC3(CC2)CC3)c1C(=O)Nc1cc(C)nc(N2CCC(F)(F)CC2)n1 [Example 4, N-(2-(4,4-difluoropiperidin-1-yl)-6-methylpyrimidin-4-yl)-4-(2-hydroxyethylsulfonamide)-2-methylamino-6-(6-azaspiro[2.5]octan-6-yl)benzamide]
HT-29 cells
  pIC50: ≥ 6.70
HCT116 cells
  pIC50: 5.59

## O=C(Nc1cccc2c1cc1n2CCOC1)c1ccc(NS(=O)(=O)CCO)cc1N1CCC2(CC1)CC2 [Example 235, N-(3,4-dihydro-1H-[1, 4]oxazino[4,3-a]indol-9-yl)-4-(2-hydroxyethylsulfonamido)-2-(6-azaspiro[2.5]octan-6-yl)benzamide]
PK study in ICR mice; [1]
  AUC: 5980 ng·h/mL
PK study in ICR mice; [2]
  Cmax: 2990 ng/mL
HT-29 cells; Homo sapiens, HT-29, 144 h
  pIC50: ≥ 6.70
HCT116 cells; Homo sapiens, HCT-116, 144 h
  pIC50: < 5.00

## O=C(Nc1ccc(F)c2c1nc1n2CCOC1)c1ccc(NS(=O)(=O)CCO)cc1N1CCC2(CC1)CC2 [Example 308, N-(6-fluoro-3,4-dihydro-1H-benzo[4,5]imidazo[2,1-c][1,4]oxazin-9-yl)-4-((2-hydroxyethyl)sulfonamido)-2-(6-azaspiro[2.5]octan-6-yl)benzamide]
PK study in ICR mice; [1]
  AUC: 5650 ng·h/mL
PK study in ICR mice; [2]
  Cmax: 1100 ng/mL
HT-29 cells; Homo sapiens, HT-29, 144 h
  pIC50: ≥ 6.70
HCT116 cells; Homo sapiens, HCT-116, 144 h
  pIC50: < 5.00

## N#Cc1ccc(NC(=O)c2ccc(NS(=O)(=O)CCO)cc2N2CCC3(CC2)CC3)c2cc3n(c12)CCOC3 [Example 310, N-(6-cyano-3,4-dihydro-1H-[1,4]oxazino[4,3-a]indol-9-yl)-4-((2-hydroxyethyl)sulfonamido)-2-(6-azaspiro[2.5]oct-6-yl)benzamide]
PK study in ICR mice; [1]
  AUC: 12600 ng·h/mL
PK study in ICR mice; [2]
  Cmax: 3030 ng/mL
HT-29 cells; Homo sapiens, HT-29, 144 h
  pIC50: ≥ 6.70
HCT116 cells; Homo sapiens, HCT-116, 144 h
  pIC50: 5.05

## O=C(Nc1cccc2c1cc1n2CCOC1)c1ccc(NS(=O)(=O)CCO)cc1N1CCC(=C(F)F)CC1 [Example 319, 2-(4-difluoromethylene)piperidin-1-yl-N-(3,4-dihydro-1H-[1,4]oxazino[4,3-a]indol-9-yl)-4-((2-hydroxyethyl)sulfonamide) benzamide]
PK study in ICR mice
  AUC: 16534 ng·h/mL
  Cmax: 3717 ng/mL
HT-29 cells
  pIC50: 6.00 to 6.70
HCT116 cells
  pIC50: < 5.00

## O=C(Nc1ccc(F)c2c1cc1n2CCOC1)c1ccc(NS(=O)(=O)CCO)cc1N1CCC(=C(F)F)CC1 [Example 321, 2-(4-(difluoromethylene)piperidin-1-yl)-N-(6-fluoro-3,4-dihydro-1H-[1,4]oxazino[4,3-a]indol-9-yl)-4-((2-hydroxyethyl)sulfonamido)benzamide]
PK study in ICR mice; [1]
  AUC: 16000 ng·h/mL
PK study in ICR mice; [2]
  Cmax: 4140 ng/mL
HT-29 cells; Homo sapiens, HT-29, 144 h
  pIC50: 6.00 to 6.70
HCT116 cells; Homo sapiens, HCT-116, 144 h
  pIC50: < 5.00

## N#Cc1ccc(NC(=O)c2ccc(NS(=O)(=O)CCO)cc2N2CCC(=C(F)F)CC2)c2cc3n(c12)CCOC3 [Example 364, N-(6-cyano-3,4-dihydro-1H-[1,4]oxazino[4,3-a]indol-9-yl)-2-(4-(difluoromethylene)piperidin-1-yl)-4-((2-hydroxyethyl)sulfonamido)benzamide]
HT-29 cells; Homo sapiens, HT-29, 144 h
  pIC50: 6.00 to 6.70
HCT116 cells; Homo sapiens, HCT-116, 144 h
  pIC50: 5.09

## CC1(C)Cn2c(cc3c(NC(=O)c4ccc(NS(=O)(=O)CCO)cc4N4CCC(=C(F)F)CC4)cccc32)CO1 [Example 370, 2-(4-(difluoromethylene)piperidin-1-yl)-N-(3,3-dimethyl-3,4-dihydro-1H-[1,4]oxazino[4,3-a]indol-9-yl)-4-((2-hydroxyethyl)sulfonamido)benzamide]
PK study in ICR mice; [1]
  AUC: 52400 ng·h/mL
PK study in ICR mice; [2]
  Cmax: 3580 ng/mL
HT-29 cells; Homo sapiens, HT-29, 144 h
  pIC50: 6.00 to 6.70
HCT116 cells; Homo sapiens, HCT-116, 144 h
  pIC50: < 5.00

## CC1(O)CCCn2c1cc1c(NC(=O)c3ccc(NS(=O)(=O)CCO)cc3N3CCC4(CC3)CC4)cccc12 (stereo not drawn) [Example 372]
HT-29 cells
  pIC50: ≥ 6.70
HCT116 cells
  pIC50: < 5.00

## CC1(C)Cn2c(cc3c(NC(=O)c4ccc(NS(=O)(=O)CCO)cc4N4CCC5(CC4)CC5)ccc(OC(F)F)c32)CO1 [Example 523]
PK study in ICR mice
  AUC: 99384 ng·h/mL
  Cmax: 7088 ng/mL
